Data published in US8802597B2, “Herbicidal pyrimidines” (E I du Pont de Nemours and Company, priority 2003, dated 2014).

Assays:
Type in all cases: in vivo
[1] = system: giant foxtail (Setaria faberi); test: Test A pre/postemergence
Outline: (§1)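 Greenhouse herbicide test with preemergence directed soil spray and postemergence foliar spray at the 1- to 2-leaf stage; visual control rating 0–100 versus untreated at ~10 days.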

[2] = system: velvetleaf (Abutilon theophrasti); test: Test A pre/postemergence
Outline: as §1

[3] = system: crabgrass (Digitaria sanguinalis); test: Test A pre/postemergence
Outline: as §1

[4] = system: redroot pigweed (Amaranthus retroflexus); test: Test A pre/postemergence
Outline: as §1

[5] = system: barnyardgrass (Echinochloa crus-galli); test: Test A pre/postemergence
Outline: as §1

[6] = system: morningglory (Ipomoea spp.); test: Test A pre/postemergence
Outline: as §1

[7] = system: transplanted rice seedlings (Oryza sativa cv. ‘Japonica-M202’); test: Test E flooded paddy water application; settings: Flood, 21 days, scale 0 to 100 (0 no effect, 100 complete control)
Text: (§2) Three plastic pots (ca. 16-cm diameter) per rate were partially filled with sterilized Tama silt loam soil comprising a 35:50:15 ratio of sand, silt and clay and 2.6% organic matter. Separate plantings for each of the three pots were as follows. Seeds from the U.S. of ducksalad (Heteranthera limosa), smallflower umbrella sedge (Cyperus difformis) and purple redstem (Ammannia coccinea), were planted into one 16-cm pot for each rate. Seeds from the U.S. of rice flatsedge (Cyperus iria), bearded (brdd.) sprangletop (Leptochloa fusca ssp. fascicularis), one stand of 9 or 10 water seeded rice seedlings (Oryza sativa cv. ‘Japonica-M202’), and one stand of 6 transplanted rice seedlings (Oryza sativa cv. ‘Japonica-M202’) were planted into one 16-cm pot for each rate. Seeds from the U.S. of barnyardgrass (Echinochloa crus-galli), late watergrass (Echinochloa oryzicola), early watergrass (Echinochloa oryzoides) and junglerice (Echinochloa colona) were planted into one 16-cm pot for each rate. Plantings were sequential so that crop and weed species were at the 2.0 to 2.5-leaf stage at time of treatment.
(§3) Potted plants were grown in a greenhouse with day/night temperature settings of 29.5/26.7° C., and supplemental balanced lighting was provided to maintain a 16-hour photoperiod. Test pots were maintained in the greenhouse until test completion.
(§4) At time of treatment, test pots were flooded to 3 cm above the soil surface, treated by application of test compounds directly to the paddy water, and then maintained at that water depth for the duration of the test. Effects of treatments on rice and weeds were visually evaluated by comparison to untreated controls after 21 days. Plant response ratings, summarized in Table E, are based on a scale of 0 to 100 where 0 is no effect and 100 is complete control. A dash (-) response means no test result.

[8] = system: early watergrass (Echinochloa oryzoides); test: Test E flooded paddy water application; settings: Flood, 21 days, scale 0 to 100 (0 no effect, 100 complete control)
Text: as §2, §3, §4

[9] = system: purple redstem (Ammannia coccinea); test: Test E flooded paddy water application; settings: Flood, 21 days, scale 0 to 100 (0 no effect, 100 complete control)
Text: as §2, §3, §4

[10] = system: water seeded rice seedlings (Oryza sativa cv. ‘Japonica-M202’); test: Test E flooded paddy water application; settings: Flood, 21 days, scale 0 to 100 (0 no effect, 100 complete control)
Text: as §2, §3, §4

[11] = system: rice flatsedge (Cyperus iria); test: Test E flooded paddy water application; settings: Flood, 21 days, scale 0 to 100 (0 no effect, 100 complete control)
Text: as §2, §3, §4

[12] = system: junglerice (Echinochloa colona); test: Test E flooded paddy water application; settings: Flood, 21 days, scale 0 to 100 (0 no effect, 100 complete control)
Text: as §2, §3, §4

[13] = system: bearded (brdd.) sprangletop (Leptochloa fusca ssp. fascicularis); test: Test E flooded paddy water application; settings: Flood, 21 days, scale 0 to 100 (0 no effect, 100 complete control)
Text: as §2, §3, §4

[14] = system: late watergrass (Echinochloa oryzicola); test: Test E flooded paddy water application; settings: Flood, 21 days, scale 0 to 100 (0 no effect, 100 complete control)
Text: as §2, §3, §4

[15] = system: smallflower umbrella sedge (Cyperus difformis); test: Test E flooded paddy water application; settings: Flood, 21 days, scale 0 to 100 (0 no effect, 100 complete control)
Text: as §2, §3, §4

[16] = system: ducksalad (Heteranthera limosa); test: Test E flooded paddy water application; settings: Flood, 21 days, scale 0 to 100 (0 no effect, 100 complete control)
Text: as §2, §3, §4

[17] = Postemergence, 125 g ai/ha, 0 to 100 scale (0 no effect, 100 complete control)
[18] = Postemergence, 500 g ai/ha, 0 to 100 scale (0 no effect, 100 complete control)
[19] = Preemergence, 125 g ai/ha, 0 to 100 scale where 0 is no effect and 100 is complete control, approximately ten days
[20] = Preemergence, 500 g ai/ha, 0 to 100 scale where 0 is no effect and 100 is complete control, approximately ten days

CCOC(=O)c1nc(-c2ccc(F)cc2)nc(N)c1Br [Compound 63]
80: Plant response rating, Pigweed [4, 20] | Sedge, Umbrella plant response rating ([15]; 250 g ai/ha)
25: Plant response rating, Morningglory [6, 18]
60: Plant response rating, Flatsedge, Rice ([11]; 16 g ai/ha)
65: Plant response rating, Pigweed [4, 18] | Redstem plant response rating ([9]; 32 g ai/ha) | Redstem plant response rating ([9]; 64 g ai/ha) | Plant response rating, Redstem ([9]; 16 g ai/ha) | Sprangletop, Brdd. plant response rating ([13]; 250 g ai/ha) | Ducksalad plant response rating ([16]; 64 g ai/ha)
30: Rice, Water Seeded plant response rating ([10]; 250 g ai/ha) | Junglerice plant response rating ([12]; 250 g ai/ha) | Ducksalad plant response rating ([16]; 32 g ai/ha) | Plant response rating, Ducksalad ([16]; 16 g ai/ha)
100: Ducksalad plant response rating ([16]; 125 g ai/ha) | Ducksalad plant response rating ([16]; 250 g ai/ha)
35: Plant response rating, Foxtail, Giant [1, 20]
55: Plant response rating, Velvetleaf [2, 17]
15: Plant response rating, Velvetleaf [2, 20]
70: Plant response rating, Velvetleaf [2, 18] | Plant response rating, Sedge, Umbrella ([15]; 16 g ai/ha)
20: Plant response rating, Morningglory [6, 17] | Rice, Water Seeded plant response rating ([10]; 125 g ai/ha)
0: Plant response rating, Foxtail, Giant [1, 17] | Plant response rating, Foxtail, Giant [1, 18] | Plant response rating, Foxtail, Giant [1, 19] | Plant response rating, Velvetleaf [2, 19] | Plant response rating, Crabgrass [3, 17] | Plant response rating, Crabgrass [3, 18] | Plant response rating, Crabgrass [3, 19] | Plant response rating, Pigweed [4, 19] | Plant response rating, Barnyardgrass [5, 17] | Plant response rating, Barnyardgrass [5, 18] | Plant response rating, Barnyardgrass [5, 19] | Plant response rating, Morningglory [6, 19] | Plant response rating, Morningglory [6, 20] | Rice, Transplanted plant response rating ([7]; 32 g ai/ha) | Rice, Transplanted plant response rating ([7]; 64 g ai/ha) | Rice, Transplanted plant response rating ([7]; 125 g ai/ha) | Rice, Transplanted plant response rating ([7]; 250 g ai/ha) | Plant response rating, Rice, Transplanted ([7]; 16 g ai/ha) | Watergrass, Early plant response rating ([8]; 32 g ai/ha) | Watergrass, Early plant response rating ([8]; 64 g ai/ha) | Watergrass, Early plant response rating ([8]; 125 g ai/ha) | Watergrass, Early plant response rating ([8]; 250 g ai/ha) | Plant response rating, Watergrass, Early ([8]; 16 g ai/ha) | Rice, Water Seeded plant response rating ([10]; 32 g ai/ha) | Rice, Water Seeded plant response rating ([10]; 64 g ai/ha) | Plant response rating, Rice, Water Seeded ([10]; 16 g ai/ha) | Junglerice plant response rating ([12]; 32 g ai/ha) | Junglerice plant response rating ([12]; 64 g ai/ha) | Junglerice plant response rating ([12]; 125 g ai/ha) | Plant response rating, Junglerice ([12]; 16 g ai/ha) | Sprangletop, Brdd. plant response rating ([13]; 32 g ai/ha) | Plant response rating, Sprangletop, Brdd. ([13]; 16 g ai/ha) | Watergrass, Late plant response rating ([14]; 32 g ai/ha) | Watergrass, Late plant response rating ([14]; 64 g ai/ha) | Watergrass, Late plant response rating ([14]; 125 g ai/ha) | Watergrass, Late plant response rating ([14]; 250 g ai/ha) | Plant response rating, Watergrass, Late ([14]; 16 g ai/ha)
75: Plant response rating, Crabgrass [3, 20] | Redstem plant response rating ([9]; 125 g ai/ha) | Redstem plant response rating ([9]; 250 g ai/ha) | Flatsedge, Rice plant response rating ([11]; 32 g ai/ha) | Flatsedge, Rice plant response rating ([11]; 64 g ai/ha) | Sedge, Umbrella plant response rating ([15]; 32 g ai/ha) | Sedge, Umbrella plant response rating ([15]; 64 g ai/ha) | Sedge, Umbrella plant response rating ([15]; 125 g ai/ha)
40: Plant response rating, Pigweed [4, 17] | Plant response rating, Barnyardgrass [5, 20] | Sprangletop, Brdd. plant response rating ([13]; 64 g ai/ha) | Sprangletop, Brdd. plant response rating ([13]; 125 g ai/ha)
85: Flatsedge, Rice plant response rating ([11]; 125 g ai/ha) | Flatsedge, Rice plant response rating ([11]; 250 g ai/ha)
